The record followed here is PubChem BioAssay (NCI).

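Step 1: Grow cells in 96-well plates. Step 2: Expose to compound for 48 hours at 5 concentrations. Step 3: Interpolate endpoints linearly; if unreached, use highest concentration. GI50 = concentration required for 50% inhibition of growth. At the TGI there is no net growth.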

Some test systems named below: M14 melanoma; EKVX NSCLC; HOP-62 NSCLC; U251 CNS; SR leukemia; SF-295 CNS; HCT-15 colon; UACC-62 melanoma; SK-MEL-28 melanoma.
Test in all cases: growth of human tumour cells (NCI), 48 h

As for `CCOC(=O)c1[nH]c(COC(C)=O)c2c1CCCCCCCCCC2`, the TGI in the experiment with M14 melanoma, with EKVX NSCLC, with HOP-62 NSCLC, in the experiment with U251 CNS, in the experiment with SR leukemia and in the experiment with SF-295 CNS was above 100 µM throughout. Besides, the TGI with HCT-15 colon and in the experiment with UACC-62 melanoma was above 100 µM each time.
Take `COC(C)(C)C/C=C/C(C)=C/C=C/C(C)=C\C=C\C(C)=C\C=C\C=C(C)\C=C\C=C(C)\C=C\C=C(C)\C=C\CC(C)(C)OC`: the GI50 in the experiment on M14 melanoma, in the experiment on SK-MEL-28 melanoma, in the experiment with EKVX NSCLC, with HOP-62 NSCLC, with U251 CNS and with HCT-15 colon was above 150 µg/mL each time. In addition, the GI50 in the experiment on UACC-62 melanoma was above 150 µg/mL. Besides, the TGI with M14 melanoma, with SK-MEL-28 melanoma, in the experiment with EKVX NSCLC, in the experiment with HOP-62 NSCLC, in the experiment with U251 CNS and with HCT-15 colon was above 150 µg/mL in each case. Besides, the TGI in the experiment with UACC-62 melanoma is above 150 µg/mL.
Take `CN(C)CC/[N+]([O-])=C(/c1ccccc1)C12CC3CC(CC(C3)C1)C2`: the TGI in the experiment with M14 melanoma amounted to 26.8 µM; in the experiment on SK-MEL-28 melanoma, 29.9 µM; with EKVX NSCLC, 38.1 µM; in the experiment on HOP-62 NSCLC, 28.9 µM; with U251 CNS it was 29.7 µM; in the experiment with SR leukemia it was 43.9 µM. For the same compound, the TGI in the experiment with SF-295 CNS was determined as 27.5 µM; with HCT-15 colon, 38.8 µM; in the experiment on UACC-62 melanoma, 27.8 µM.
On to `O=c1c2cc(Cl)ccc2sc2cccc(Cl)c12`, for which the TGI in the experiment on M14 melanoma, with SK-MEL-28 melanoma, with EKVX NSCLC, in the experiment on HOP-62 NSCLC, in the experiment on U251 CNS and in the experiment on SR leukemia was above 100 µM each time. The TGI in the experiment with SF-295 CNS, in the experiment on HCT-15 colon and with UACC-62 melanoma was above 100 µM in each case.
Regarding `CC(C)(c1ccccc1)c1ccc(OC#N)cc1`, the TGI in the experiment on M14 melanoma was above 100 µM; in the experiment on SK-MEL-28 melanoma, above 100 µM; in the experiment on EKVX NSCLC, above 100 µM; in the experiment on HOP-62 NSCLC, above 100 µM; with U251 CNS, above 100 µM; with SR leukemia it was 43.1 µM. Further, the TGI in the experiment with SF-295 CNS was above 100 µM; in the experiment on HCT-15 colon it was 31.3 µM; in the experiment on UACC-62 melanoma it was above 100 µM.
Take `Cc1cccc(C)c1NC(=O)C(=O)Nn1c(NN)nc2ccccc2c1=O`: the TGI with M14 melanoma, in the experiment on SK-MEL-28 melanoma, in the experiment on EKVX NSCLC, with HOP-62 NSCLC, with U251 CNS and in the experiment with SR leukemia was above 100 µM in each case. In addition, the TGI with SF-295 CNS, in the experiment on HCT-15 colon and with UACC-62 melanoma was above 100 µM throughout.
As for `COc1ccccc1NC(=O)CC(=O)N/N=C/c1ccc(N(CCC#N)S(=O)(=O)c2ccccc2)cc1`, the TGI with M14 melanoma, in the experiment with SK-MEL-28 melanoma, in the experiment on EKVX NSCLC, in the experiment with HOP-62 NSCLC, in the experiment on U251 CNS and in the experiment with SR leukemia was above 100 µM throughout. Further, the TGI in the experiment on SF-295 CNS, in the experiment on HCT-15 colon and with UACC-62 melanoma was above 100 µM each time.
Take `N#CC1CCCCCCCCCCC(=O)N(CCCl)C1=O` (configuration not stated): the TGI with M14 melanoma, in the experiment on SK-MEL-28 melanoma, in the experiment on EKVX NSCLC, in the experiment with HOP-62 NSCLC, in the experiment with U251 CNS and in the experiment with SF-295 CNS was above 100 µM in each case. In addition, the TGI in the experiment on UACC-62 melanoma is above 100 µM.
As for `O=C(NC12CC3CC(CC(C3)C1)C2)C(=O)c1c[nH]c2ccccc12`, the TGI with M14 melanoma was found to be 29.3 µM; in the experiment on SK-MEL-28 melanoma, 30.3 µM; in the experiment with EKVX NSCLC it was 32.2 µM; with HOP-62 NSCLC, 36.7 µM; in the experiment on U251 CNS it was 26.7 µM; in the experiment with SR leukemia it was 48.7 µM. Further, the TGI was 22.4 µM in the experiment on SF-295 CNS, 24.4 µM with HCT-15 colon and 26.5 µM in the experiment on UACC-62 melanoma.
For `COc1cc2c(cc1OC)/C(=C\c1ccccc1N)C(=O)OC2`, the TGI came to 55.4 µM in the experiment with M14 melanoma; 41.5 µM in the experiment with SK-MEL-28 melanoma; 44.2 µM in the experiment with EKVX NSCLC; 45.4 µM in the experiment on HOP-62 NSCLC; 32.6 µM in the experiment with U251 CNS; 29.3 µM in the experiment with SF-295 CNS. Further, the TGI in the experiment on HCT-15 colon amounted to 27.2 µM; with UACC-62 melanoma, 32.2 µM.
As for `O=C1C(=Cc2c(O)cc(O)cc2O)C(=O)c2ccccc21`, the TGI was above 57.2 µM in the experiment with M14 melanoma; above 60.3 µM in the experiment with SK-MEL-28 melanoma; above 100 µM with EKVX NSCLC; above 100 µM in the experiment with HOP-62 NSCLC; above 57.2 µM in the experiment on U251 CNS; 50.7 µM with SR leukemia. Also, the TGI was above 57 µM in the experiment on SF-295 CNS, above 77 µM in the experiment with HCT-15 colon and above 54.9 µM in the experiment with UACC-62 melanoma.
`CC(=O)OCC1OC(n2c(-c3ccc(C)cc3)cc(-c3ccccc3)c(C#N)c2=O)C(OC(C)=O)C(OC(C)=O)C1OC(C)=O` (configuration not stated): the TGI in the experiment with M14 melanoma, with SK-MEL-28 melanoma, in the experiment with EKVX NSCLC, in the experiment with HOP-62 NSCLC, with U251 CNS and in the experiment on HCT-15 colon was above 100 µM throughout. For the same compound, the TGI with UACC-62 melanoma was above 100 µM.
Take `Cc1cc(C)cc(NC(N)=S)c1`: the TGI in the experiment with M14 melanoma, in the experiment with SK-MEL-28 melanoma, in the experiment with EKVX NSCLC, in the experiment with HOP-62 NSCLC, with U251 CNS and in the experiment on SR leukemia was above 100 µM in each case. In addition, the TGI in the experiment on SF-295 CNS was above 100 µM; in the experiment with HCT-15 colon, 38.4 µM; with UACC-62 melanoma it was above 100 µM.
For the compound `CC(=O)C1=C(O)CC2CC3c4[nH]c5ccccc5c4CCN3CC2C1` (configuration not stated), the TGI was above 100 µM in the experiment with M14 melanoma; above 100 µM in the experiment on SK-MEL-28 melanoma; above 100 µM with EKVX NSCLC; above 100 µM with HOP-62 NSCLC; above 100 µM in the experiment on U251 CNS; 58.5 µM in the experiment on SR leukemia. The TGI with SF-295 CNS and in the experiment with HCT-15 colon was above 100 µM each time.
For the compound `O=C(c1ccccc1)c1cn(/N=C\c2ccccc2)c(=O)nc1-c1ccccc1`, the TGI in the experiment with M14 melanoma, in the experiment on SK-MEL-28 melanoma, in the experiment on EKVX NSCLC, in the experiment on HOP-62 NSCLC, in the experiment on U251 CNS and in the experiment with SF-295 CNS was above 100 µM in each case. In addition, the TGI in the experiment on HCT-15 colon and with UACC-62 melanoma was above 100 µM each time.
